Consider four compounds from patent publication US11185549B2, “Combination of a PI3K-inhibitor with an androgen receptor antagonist” (priority 2017, dated 2021).

Where “and” joins values, the source holds several entries; their conditions need not be identical. Equal entries are not always repeated. Structures can show the parent of a compound that is named as a salt. Where two headings read alike, the source gives them in different places.

In assay [1] the test system is VCaP human prostate cancer cells. The assay is described as follows: VCaP proliferation assay (CellTiter-Glo), single agents and combination index. Format: cell-based. The protocol: (§1) Cell lines derived from human prostate cancer metastasis were used (Table 1).
(§2) After one day, the cells were treated with R1881 (10 nM) and 1 nM to 10 μM compounds (day 0). Cell number was determined following addition of CellTiter-Glo® (Promega) at day 0 and day 6. Luminescence was determined in a Victor X3 device (PerkinElmer). The inhibition of cell growth was calculated by normalization with respect to the luminescence reading (cell number) measured at the end of the experiment for cells treated with R1881 alone compared to the fluorescence reading (cell number) measured at the end of the experiment for DMSO-treated cells. […] After one day, the cells were treated with R1881 (0.1 nM) and 1 nM to 10 μM compounds (day 0). Cell number was determined following addition of CellTiter-Glo® (Promega) at day 0 and day 6. Luminescence was determined in a Victor X3 device […]. The inhibition of cell growth was calculated by normalization with respect to the luminescence reading (cell number) measured at the end of the experiment for cells treated with R1881 alone compared to the fluorescence reading (cell number) measured at the start of the experiment for DMSO-treated cells.
(§3) The Combination Index (CI) was determined for the two compound ratios closest to the ratio of the respective IC50 values of each compound alone.
On the technique in general: ATP-based viability assays read luminescence as a measure of living cells.

Another assay relates to PI3K isoforms. The note with it: cited from earlier work.
Another assay concerns the target mTOR (Homo sapiens, UniProt P42345). The conditions noted are these: cited from earlier work.
Assay [2] deals with LAPC-4 human prostate cancer cells. Nature of the assay: LAPC-4 proliferation assay (CellTiter-Glo), single agents and combination index. It is filed as cell-based. The protocol:
as §1, §2, §3

In assay [3] the test system is androgen receptor. The note with it: cited from earlier work.
In assay [4] the target is androgen receptor (Homo sapiens, UniProt P10275). The note with it: cited from earlier work.
Setting [5] is: Homo sapiens, VCaP, 144 h, VCaP cells, single agent, R1881 0.1 nM, day 6, read-out: Compound A IC50.
Setting [6] is: Homo sapiens, LAPC4, 144 h, LAPC-4 cells, single agent, R1881 10 nM, day 6, read-out: Compound A IC50.

Chain of androgen receptor (Homo sapiens, UniProt P10275) (P10275 whole entry, species assumed): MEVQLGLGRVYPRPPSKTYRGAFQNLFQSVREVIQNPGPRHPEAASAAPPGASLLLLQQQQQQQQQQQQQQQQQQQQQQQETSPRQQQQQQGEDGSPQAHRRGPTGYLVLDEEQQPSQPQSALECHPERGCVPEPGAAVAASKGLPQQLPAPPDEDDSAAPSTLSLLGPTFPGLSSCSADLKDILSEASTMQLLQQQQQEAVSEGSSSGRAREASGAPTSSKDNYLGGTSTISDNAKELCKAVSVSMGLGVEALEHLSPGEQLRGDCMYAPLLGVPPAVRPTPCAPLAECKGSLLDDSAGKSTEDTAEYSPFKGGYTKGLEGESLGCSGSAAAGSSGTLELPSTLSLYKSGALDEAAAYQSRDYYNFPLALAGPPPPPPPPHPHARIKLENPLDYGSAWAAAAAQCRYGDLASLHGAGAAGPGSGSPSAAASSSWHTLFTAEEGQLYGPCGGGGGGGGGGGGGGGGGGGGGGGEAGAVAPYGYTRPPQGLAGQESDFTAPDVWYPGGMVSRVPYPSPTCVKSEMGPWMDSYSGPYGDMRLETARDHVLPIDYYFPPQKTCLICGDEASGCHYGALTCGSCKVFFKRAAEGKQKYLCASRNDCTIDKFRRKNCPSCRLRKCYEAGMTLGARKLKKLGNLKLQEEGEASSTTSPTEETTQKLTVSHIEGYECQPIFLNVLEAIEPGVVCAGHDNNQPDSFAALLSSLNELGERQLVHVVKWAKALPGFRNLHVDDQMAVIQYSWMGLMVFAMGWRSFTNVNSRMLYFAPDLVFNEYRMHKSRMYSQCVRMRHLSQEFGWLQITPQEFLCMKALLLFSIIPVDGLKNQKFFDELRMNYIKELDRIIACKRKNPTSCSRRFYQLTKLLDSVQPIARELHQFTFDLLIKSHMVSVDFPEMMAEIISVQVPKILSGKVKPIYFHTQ

As for `Cn1c(=O)n(-c2ccc(C(C)(C)C#N)cc2)c2c3cc(-c4cnc5ccccc5c4)ccc3ncc21` [Dactolisib], the IC50 in assay [1] (setting [5]) was 26 nM. Besides, in the assay on PI3K isoforms, the “activity against PI3K isoforms” value is recorded as “low nanomolar”. Besides, the “activity against mTOR” value at mTOR is “low nanomolar”.
Consider `COc1c(OCCCN2CCOCC2)ccc2c1N=C(NC(=O)c1cnc(N)nc1)N1CCN=C21` [Copanlisib, 2-amino-N-[7-methoxy-8-(3-morpholin-4-ylpropoxy)-2,3-dihydroimidazo[1,2-c]quinazolin-5-yl]pyrimidine-5-carboxamide dihydrochloride], for which the IC50 stood at 41 nM in assay [2] (setting [6]); 49 nM in assay [2] (LAPC-4 cells, single agent, R1881 10 nM, day 6, dihydrochloride, read-out: Compound A IC50); 9 nM in assay [1] (setting [5]).
As for `Cc1c(CN2CCN(C(=O)[C@H](C)O)CC2)sc2c(N3CCOCC3)nc(-c3cnc(N)nc3)nc12` [Apitolisib], the IC50 in assay [2] (setting [6]) was determined as 12 nM; in assay [2] (LAPC-4 cells, single agent, R1881 10 nM, day 6, read-out: Compound A IC50), 13 nM; in assay [1] (setting [5]) it was 52 nM. The “activity against PI3K isoforms” value in the assay on PI3K isoforms is on record as “low nanomolar”. Also, the “activity against mTOR” value at mTOR is “low nanomolar”.
Turning to `CC(O)c1cc(C(=O)N[C@@H](C)Cn2ccc(-c3ccc(C#N)c(Cl)c3)n2)[nH]n1` (some centres unmarked) [Darolutamide], the half-maximal inhibitory concentration (IC50) was 263 nM in assay [2] (Homo sapiens, LAPC4, 144 h, read-out: Compound B IC50, LAPC-4 cells, single agent, R1881 10 nM, day 6); 366 nM in assay [2] (read-out: Compound B IC50, LAPC-4 cells, single agent, R1881 10 nM, day 6); 350 nM in assay [1] (Homo sapiens, VCaP, 144 h, read-out: Compound B IC50, VCaP cells, single agent, R1881 0.1 nM, day 6); 417 nM and 557 nM in assay [1] (read-out: Compound B IC50, VCaP cells, single agent, R1881 0.1 nM, day 6). Moreover, the “binding affinity for the androgen receptor” value with androgen receptor [3] was “low nanomolar”. In addition, the “inhibition of transactivation function” value at androgen receptor [4] is recorded as “high inhibition”.

In general, IC50 refers to the concentration that gives 50% inhibition.
